Test results from paper PMC12016938, “A small molecule PKCε inhibitor reduces hyperalgesia induced by paclitaxel or opioid withdrawal” (JCI Insight, 2025).
“And” between values parts separate entries of the source, which are not always exact repeats. Equal entries are not always repeated.

Test system: self-administration (addictive potential)
Assay: I.v. self-administration of CP612, between-session progressive ratio and demand curve
Description: We tested the addictive potential of CP612 by examining the extent to which rats are willing to work to obtain CP612. Rats were initially trained to self-administer either saline, morphine (500 μg/kg/i.v. infusion), or 1 of 3 different doses of CP612 (75, 150, or 300 μg/kg/i.v. infusion) for 4 days at fixed ratio 1 (FR1, where 1 nose poke delivers 1 infusion).
During the second phase, the ratio to obtain an infusion increased geometrically every other day (FR1, FR3, FR6, FR12, FR24, FR48, and FR96).
Data (number of self-infusions) were also fitted in an economic-demand curve, which provides an estimate of the motivation to obtain drugs and their addictive potential ([20]). We measured elasticity (α), which is the relative change in consumption as a function of price (i.e., ratio of nose pokes required to obtain an infusion). Behavior is considered “inelastic” when consumption is insensitive to price and “elastic” when consumption is sensitive to price. We also measured Pmax, which is the price at which intake switches from inelastic to elastic. […] (Figure 8B).
Rats not immediately anesthetized were eliminated from the study.
Following this initial acquisition phase at FR1, the ratio to obtain the drug was increased geometrically every other day: FR3 (3 nose pokes are required to obtain 1 infusion of morphine), FR6, FR12, FR24, FR48, and FR96. This allows for analysis of drug consumption as a function of “price” using demand curves for behavioral economics, which can estimate the motivation to obtain drugs and their “addictive potential” ([20]). For this, data from each rat were fitted to the equation log Q = log Q0 + k (e ^–α(Q0 ^C) – 1), where Q represents consumption (number of self-infusions), and Q0 represents the level of consumption at the lowest price. C represents price for the drug (i.e., the ratio), and k is set to a constant accounting for the estimated range of consumption in logarithmic units (k = 4 in these studies). The symbol α is the relative change in consumption across changes in price (ratio). Behavior is considered “inelastic” when consumption is insensitive to price (i.e., the curve is flat, and consumption is maintained despite increases in price), and it switches to “elastic” when consumption is sensitive to price (i.e., when the curve is steep and consumption declines with increases in price). […] We also compared groups for their average intake in the consumption-price curves by measuring α (elasticity) and Pmax.

## N[C@H](CNC(=O)C1(c2ccc(Cl)cc2)CCCC1)c1ccc(C(=O)Nc2ccncc2)cc1 [CP612]
CP612-Mid, individual rat
  AVG Latency (FR12): 0.5 and 1.1 and 1.0 and 3.5 and 4.2
  AVG Latency (FR24): 0.3 and 1.4 and 1.0 and 1.5
  AVG Latency (FR48): 0.112 and 1.3 and 0.7 and 0.539 and 2.5
  AVG Latency (FR96): 2.0 and 0.8 and 0.6 and 2.4
  D1 Latency (FR1): 3.8 and 0.15 and 0.8 and 0.215
  D1 Latency (FR3): 0.137 and 0.557 and 0.083 and 0.1 and 1.4
  D1 Latency (FR6): 0.9 and 1.2 and 1.4 and 3.2 and 4.8
  D1 Latency (FR12): 0.255 and 1.6 and 1.7 and 5.8
  D1 Latency (FR24): 0.108 and 2.3 and 0.4 and 0.282 and 2.0
  D1 Latency (FR48): 0.123 and 1.4 and 0.337 and 0.447 and 2.9
  D1 Latency (FR96): 2.4 and 0.76 and 0.8 and 2.5 and 0.4
  D2 Latency (FR1): 0.5 and 0.215 and 0.6 and 0.237 and 2.1
  D2 Latency (FR3): 1.4 and 0.375 and 2.2 and 0.065 and 0.125
  D2 Latency (FR6): 0.335 and 0.737 and 0.17 and 2.8 and 5.1
  D2 Latency (FR12): 0.7 and 0.6 and 0.4 and 5.2 and 2.6
  D2 Latency (FR24): 0.5 and 0.432 and 0.168 and 1.7 and 1.0
  D2 Latency (FR48): 0.1 and 1.2 and 1.0 and 0.632 and 2.0
  D2 Latency (FR96): 1.7 and 0.8 and 0.435 and 2.3
  D3 Latency (FR1): 0.237 and 0.127 and 0.132 and 0.128 and 0.347
  D4 Latency (FR1): 0.8 and 1.4 and 0.4 and 3.8
  last Latency (FR1): 0.158 and 0.458 and 0.11 and 0.378 and 3.0
  last-1 Latency (FR1): 0.8 and 1.4 and 0.4 and 3.8
  last-2 Latency (FR1): 0.237 and 0.127 and 0.132 and 0.128 and 0.347
  last-3 Latency (FR1): 0.237 and 0.215 and 0.6 and 0.128 and 0.347
CP612-Mid, individual rats
  AVG Latency (FR1_D1 to D4): 1.8 and 5.8 and 0.9
  AVG Latency (FR1_Last 2 FR1 days): 0.456 and 1.8 and 0.373
  AVG Latency (FR1_Last 4 FR1 days): 0.455 and 2.3 and 0.265
  AVG Latency (FR3): 0.7 and 0.9 and 0.6
  AVG Latency (FR6): 1.0 and 2.4 and 0.144
  AVG Latency (FR12): 0.657 and 1.0 and 0.8
  AVG Latency (FR24): 0.8 and 0.757 and 0.6
  AVG Latency (FR48): 2.5 and 6.0 and 0.7
  AVG Latency (FR96): 1.0 and 1.3
  D1 Latency (FR1): 5.7 and 14.9 and 2.9
  D1 Latency (FR3): 1.0 and 0.8 and 0.465
  D1 Latency (FR6): 1.7 and 4.2 and 0.257
  D1 Latency (FR12): 0.9 and 1.9 and 1.1
  D1 Latency (FR24): 1.1 and 0.9 and 0.442
  D1 Latency (FR48): 1.5 and 0.8 and 1.2
  D1 Latency (FR96): 1.1 and 0.335 and 0.8
  D2 Latency (FR1): 0.7 and 3.0 and 0.022
  D2 Latency (FR3): 0.4 and 1.0 and 0.738
  D2 Latency (FR6): 0.427 and 0.638 and 0.03
  D2 Latency (FR12): 0.377 and 0.168 and 0.5
  D2 Latency (FR24): 0.5 and 0.6 and 0.753
  D2 Latency (FR48): 3.5 and 11.3 and 0.2
  D2 Latency (FR96): 0.8 and 2.3 and 1.1
  D3 Latency (FR1): 0.6 and 4.4 and 0.157
  D4 Latency (FR1): 0.3 and 1.0 and 0.57
  last Latency (FR1): 0.2 and 0.6 and 0.177
  last-1 Latency (FR1): 0.7 and 3.1 and 0.57
  last-2 Latency (FR1): 0.3 and 1.0 and 0.157
  last-3 Latency (FR1): 0.6 and 4.4 and 0.157
rat, in vivo
  AVG Inf (FR96): 0.0
  Addictive potential: highly unlikely to be addictive
  D1 Inf (FR96): 0
  D2 Inf (FR96): 0
rat, in vivo, 2 h
  AVG Inf (FR96): 0.0
  D1 Inf (FR96): 0
  D2 Inf (FR96): 0
rat, in vivo, 1 day at FR48
  D1 Inf (FR48): 0
rat, in vivo, 1 day at FR96
  D1 Inf (FR96): 0
rat, in vivo, 2 day at FR48
  D2 Inf (FR48): 0
rat, in vivo, 2 day at FR96
  D2 Inf (FR96): 0
